According to patent US8372430B2, “Compositions, methods, and kits useful for the alleviation of gastrointestinal effects” (priority 2002, dated 2013):

What was measured:
[1] = test system: overweight human subject; assay: Example 5: XENICAL regimen changed to XENICAL plus behenic acid capsules in an overweight human subject; assay type: in vivo; details: behenic acid 1.2 g capsule with XENICAL (120 mg orlistat) at each meal
Method: An overweight human subject is given a therapeutic dose of XENICAL@ (360 mg orlistat per day/three doses of 120 mg orlistat with each meal) to assist in the reduction of body weight.
When these symptoms are first observed, the regimen is modified to a combination of XENICAL® and behenic acid. At each meal, the subject consumes two capsules. The first capsule is XENICAL® (120 mg orlistat) while the second capsule contains the behenic acid (1.2 g). These capsules are co-packaged in a kit for the convenience of the subject.

[2] = test system: overweight human subject; assay: Example 4: XENICAL regimen with separate magnesium stearate wafer in an overweight human subject; assay type: in vivo
Method: XENICAL® is prescribed to an overweight human subject at a therapeutic dose of 120 mg orlistat taken with each of three daily meals. This dose causes a reduction in the absorption of dietary fat such that total caloric intake by the subject is reduced by approximately 10%, relative to the subjects normal dietary energy intake. […] In particular, magnesium stearate is provided at an amount of 1 gram incorporated into a wafer that is consumed with each meal, resulting in a total consumption of 3 grams per day of magnesium stearate. […] The efficacy of the XENICAL® is unaffected by the addition of magnesium stearate to the diet.

[3] = test system: male, Sprague-Dawley rats; assay: Fur appearance score: separation of excreted dietary oil from fecal matter in rats fed food compositions; assay type: in vivo, rat; details: food with 0.04% orlistat, no calcium stearate, ad libitum 11 days, assessed days 7 and 11; scale 1 (no oil visible on fur) to 5 (>90% of fur oiled)
Text: Groups of male, Sprague-Dawley rats (commercially available from Harlan Labs, Indianapolis, Ind.), were presented with a composition, which was a food composition, containing either 0.04% orlistat, by weight of the composition, or the combination of 0.04% orlistat and 1%, 0.5%, or 0.25% calcium stearate, all by weight of the composition. The fat content of each composition provided 30% of the consumed energy of the rat. Another group of rats (also male, Sprague Dawley, commercially available from Harlan Labs, Indianapolis, Ind.) were presented with the same food compositions, except devoid of orlistat and calcium stearate (“control compositions”). All rats consumed their respective compositions ad libitum for 11 days.
On the seventh and eleventh days of these dietary regimens, the appearance of each rat was viewed by assessors not aware of the identity of composition consumed by the rats. Separation of oil from the other fecal matter of each rat was determined by the use of a scale that quantified the fraction of the rat's fur that was coated with excreted dietary oil. […] Intermediate scores of “2,” “3,” and “4” indicated partial covering of the rat's fur, with “2” corresponding to approximately 10% coverage or less, “3” corresponding to approximately greater than 10% to approximately 50% coverage, and “4” corresponding to approximately greater than 50% to approximately 90% coverage.

Compound: CCCCCCCCCCCCCCCCCCCCCC(=O)O [behenic acid]
- state of the excreted fat [1]: stiffened

Compound: magnesium stearate
- effect on gastrointestinal discomfort and anal leakage of unabsorbed oil ([2]; 1 gram magnesium stearate in a wafer with each meal (3 grams per day), together with XENICAL): prevents the gastrointestinal discomfort and anal leakage of unabsorbed oil
- efficacy of XENICAL on addition of magnesium stearate to the diet ([2]; 3 grams per day magnesium stearate with XENICAL 120 mg orlistat per meal): unaffected

Compound: CCCCCCCCCCCC(CC1OC(=O)C1CCCCCC)OC(=O)C(CC(C)C)NC=O (stereo not shown) [orlistat, tetrahydrolipstatin]
- mean fur appearance score [3]: 2.4
